Reference: patent US5037812A, “Tumor cell growth-inhibiting pharmaceutical compositions containing phosphino-hydrocarbon-gold, silver or copper complexes” (priority 1986, dated 1991)
Several values for one entry are separate records, joined by “and”; a condition that tells them apart may be missing. Equal values may be shown once.

Assays:
[1] = system: P388 leukemia; test: ip P388 leukemia mouse model; assay type: in vivo, mice (B6D2F1); conditions: for MTD (maximally tolerated dose): B6D2F female mice, ip qDX5; for ILS max (maximum increase in lifespan): mice bearing ip P388 leukemia, ip days 1-5 at MTD, slash-separated figures are separate experiments
Procedure: This tumor system is widely accepted as an antitumor agent screening tool because it is sensitive to virtually all of the clinically active antineoplastic agents; quantitative and reproducible; amenable for large-scale screening; and predictive for activity in other animal tumor models.
10^6 P388 leukemia cells are inoculated ip in B6D2F1 mice. Twenty-four hours later, if the tumor inoculum proves to be free of bacterial contamination (as determined by 24 hours incubation in thioglycollate broth), animals are randomized into groups of 6 and housed in shoebox cages. […] An equal volume of saline or water is added; if the drug comes out of solution an equal volume of Cremophor (polyethoxylated castor oil) is added and then saline or water, as to a concentration such that the desired dose is delivered in 0.5 ml. The final concentration of DMA, ethanol or Cremophor is 10 percent. Dilutions for lower doses are made with saline or water so that there is a decreasing proportion of organic solvents in the vehicle with decreasing dosage. […] Formulations are prepared immediately prior to injection. The Formula (I) and Formula (II) compounds are administered ip on Days 1 through 5 (i.e., treatment is initiated 24 hrs after tumor inoculation). Each experiment includes three groups of 6 animals as untreated controls and animals treated with a positive control, cisplatin, at two dose levels. Animals are weighed as a group on Days 1, 5 and 9 and average weight change (Δwt.) is used as a reflection of toxicity. Each experiment also includes an inoculum titration--groups of 8 mice inoculated ip with 10^5 to 10^0 P388 leukemia cells. The titration is used as a quality control check for the performance of the tumor model. Animals are monitored daily for mortality and experiments are terminated after 45 days. The endpoint is median survival time (MST) and increase in lifespan (ILS) which is the percentage of increase in MST relative to untreated controls.

[2] = solubility in 9:1 water:ethanol (HPLC of filtrate); conditions: stirred 15 hours, 0.45 μm PTFE filter, HPLC
Procedure: Such solubility was determined as follows: The compound in question was dissolved or suspended in absolute ethanol (250 mg solid per 1.0 ml ethanol). To the resulting solution or suspension, water (9.0 times the volume of ethanol) was added. This suspension was stirred vigorously for 15 hours, then filtered through a 0.45 μm poly(tetrafluoroethylene) (PTFE) filter. […] The HPLC system was as follows:
Column PLRP-S, 5μm, obtained from Polymer Laboratories, Inc.
Mobile Phase 9:1 acetonitrile:0.1% tetra-n-butylammonium hydrogen sulfate (50° C., 1.0 ml-min-^-1)
Detection Ultraviolet (250 nm)

[3] = system: M5076 reticulum cell sarcoma; test: ip M5076 reticulum cell sarcoma in mice; assay type: in vivo, mice (B6D2F female); conditions: for MTD (maximally tolerated dose): B6D2F female mice, ip qDX10; for ILS max (maximum increase in lifespan): mice bearing ip M5076, ip qDX10 at MTD, slash-separated figures are separate experiments
Procedure: Another tumor model used for evaluation of tumor growth inhibiting drugs is intraperitoneally implanted M5076 reticulum cell sarcoma in mice. […] Drugs are administered ip. Daily treatment is begun 24 hours after implantation and is continued for ten days. The treatment regimen for M5076 is more prolonged than for P388 because of the slower growth rate and longer control survival time of the M5076 tumor. Compounds of Formula (I) and Formula (II) were evaluated in this assay. An evaluation of several compounds of Formula (I) in the M5076 reticulum cell sarcoma assay at their maximally tolerated dose (MTD) is set forth in Table III. An ILS of ≥25% indicates activity in this tumor model.
^(b) maximally tolerated dose for B6D2F female mice on an ip qDX10
^(c) maximum increase in lifespan produced in mice bearing ip M5076

[4] = system: B16 melanoma; test: in vivo ip B16 melanoma assay; design: species or system mice (B6D2F1); conditions: ip qDX10; for MTD (maximally tolerated dose): B6D2F1 mice; for ILS (maximum increase in lifespan): mice bearing ip B16 melanoma, slash-separated figures are separate experiments
Procedure: Daily treatment is begun 24 hours after tumor implantation and is continued daily for ten (10) days. The route of drug administration is ip. The mice are monitored daily for survival for sixty (60) days. Antitumor activity is assessed by prolongation of median survival time. An ILS of ≥25% indicates activity in this tumor model.
^(b) maximally tolerated dose for B6D2F1 mice on an ip qDX10
^(c) maximum increase in lifespan produced in mice bearing ip B16

## O=[N+]([O-])[O-].[Au+].c1ccc(P(CCP(c2ccccc2)c2ccccc2)c2ccccc2)cc1.c1ccc(P(CCP(c2ccccc2)c2ccccc2)c2ccccc2)cc1 [compound 5, Bis[1,2-bis(diphenylphosphino)ethane]Gold(I) Nitrate]
[1]
  MTD (maximally tolerated dose): 3 mg/kg
  ILS max (maximum increase in lifespan): 90 ± 17%
[2]
  Solubility in 9:1 Water:Ethanol: 30 µg/mL

## Fc1cccc(P(CCP(c2cccc(F)c2)c2cccc(F)c2)c2cccc(F)c2)c1.Fc1cccc(P(CCP(c2cccc(F)c2)c2cccc(F)c2)c2cccc(F)c2)c1.[Au+].[Cl-] [compound 7, Bis[1,2-bis[bis(. Phosphino]ethane]Gold(I) Chloride]
[1]
  ILS max (maximum increase in lifespan): 45% and 55%

## CCP(CC)CCP(c1ccccc1)c1ccccc1.CCP(CC)CCP(c1ccccc1)c1ccccc1.[Au+].[Cl-] [compound 8]
[1]
  MTD (maximally tolerated dose): 3 mg/kg
  ILS max (maximum increase in lifespan): 54 ± 16%
[3]
  MTD (maximally tolerated dose): 2 mg/kg
  ILS max (maximum increase in lifespan): 46%

## CCP(CC)CCP(c1ccccc1)c1ccccc1.CCP(CC)CCP(c1ccccc1)c1ccccc1.[Cl-].[Cu+] [compound 9]
[1]
  MTD (maximally tolerated dose): 1.5 mg/kg
  ILS max (maximum increase in lifespan): 48% and 45%

## CCP(CC)CCP(CC)CC.CCP(CC)CCP(CC)CC.F[P-](F)(F)(F)(F)F.[Au+] [compound 10, Bis[1,2-bis(diethylphosphino)ethane]Gold(I) Hexafluorophosphate]
[1]
  MTD (maximally tolerated dose): 4 mg/kg
  ILS max (maximum increase in lifespan): 40% and 30%

## [Cl-].[Cu+].c1ccc(P(CCCP(c2ccccc2)c2ccccc2)c2ccccc2)cc1.c1ccc(P(CCCP(c2ccccc2)c2ccccc2)c2ccccc2)cc1 [compound 12, Bis[1,3-bis(diphenylphosphino)propane]Copper(I) Chloride]
[4]
  MTD (maximally tolerated dose): 1 mg/kg
  ILS (maximum increase in lifespan): 32% and 47%
[1]
  MTD (maximally tolerated dose): 2 mg/kg
  ILS max (maximum increase in lifespan): 92 ± 15%

## C1=C[PH](c2ccccc2)(c2ccccc2)[Cu+]2([PH]1(c1ccccc1)c1ccccc1)[PH](c1ccccc1)(c1ccccc1)C=C[PH]2(c1ccccc1)c1ccccc1.[Cl-] (stereo not drawn) [compound 13, Bis[cis-1,2-bis(diphenylphosphino)ethylene]Copper(I) Chloride]
[4]
  MTD (maximally tolerated dose): 0.75 mg/kg
  ILS (maximum increase in lifespan): 42%
[1]
  MTD (maximally tolerated dose): 3 mg/kg
  ILS max (maximum increase in lifespan): 70 ± 23%
[3]
  MTD (maximally tolerated dose): 2 mg/kg
  ILS max (maximum increase in lifespan): 40%

## CS(=O)(=O)[O-].[Au+].c1ccc(P(CCP(c2ccccc2)c2ccccc2)c2ccccc2)cc1.c1ccc(P(CCP(c2ccccc2)c2ccccc2)c2ccccc2)cc1 [compound 14, Bis[1,2-bis(diphenylphosphino)ethane]gold(I) methanesulfonate]
[1]
  MTD (maximally tolerated dose): 2 mg/kg
  ILS max (maximum increase in lifespan): 81 ± 17%
[2]
  Solubility in 9:1 Water:Ethanol: 30 µg/mL

## CC(O)C(=O)[O-].[Au+].c1ccc(P(CCP(c2ccccc2)c2ccccc2)c2ccccc2)cc1.c1ccc(P(CCP(c2ccccc2)c2ccccc2)c2ccccc2)cc1 [compound 15, Bis[1,2-bis(diphenylphosphino)ethane]gold(I) 2-hydroxypropanoate]
[4]
  MTD (maximally tolerated dose): 1.5 mg/kg
  ILS (maximum increase in lifespan): 30%
[1]
  MTD (maximally tolerated dose): 2 mg/kg
  ILS max (maximum increase in lifespan): 71 ± 12%
[2]
  Solubility in 9:1 Water:Ethanol: 5200 µg/mL

## O=C([O-])C1OC(O)C(O)C(O)C1O.[Au+].c1ccc(P(CCP(c2ccccc2)c2ccccc2)c2ccccc2)cc1.c1ccc(P(CCP(c2ccccc2)c2ccccc2)c2ccccc2)cc1 [compound 16, Bis[1,2-bis(diphenylphosphino)ethane]gold(I) glucuronate]
[4]
  MTD (maximally tolerated dose): 1.5 mg/kg
  ILS (maximum increase in lifespan): 40%
[1]
  MTD (maximally tolerated dose): 2 mg/kg
  ILS max (maximum increase in lifespan): 64 ± 17%
[2]
  Solubility in 9:1 Water:Ethanol: 300 µg/mL

## O=S(=O)([O-])[O-].c1ccc([PH]2(c3ccccc3)CC[PH](c3ccccc3)(c3ccccc3)[Au+]23[PH](c2ccccc2)(c2ccccc2)CC[PH]3(c2ccccc2)c2ccccc2)cc1.c1ccc([PH]2(c3ccccc3)CC[PH](c3ccccc3)(c3ccccc3)[Au+]23[PH](c2ccccc2)(c2ccccc2)CC[PH]3(c2ccccc2)c2ccccc2)cc1 (stereo not drawn) [compound 17, Bis{bis[1,2-bis(diphenylphosphino)ethane]gold(I)} sulfate]
[1]
  MTD (maximally tolerated dose): 2 mg/kg
  ILS max (maximum increase in lifespan): 74% and 50%
[2]
  Solubility in 9:1 Water:Ethanol: 30 µg/mL

## N#C[O-].[Au+].c1ccc(P(CCP(c2ccccc2)c2ccccc2)c2ccccc2)cc1.c1ccc(P(CCP(c2ccccc2)c2ccccc2)c2ccccc2)cc1 [compound 18, Bis[1,2-bis(diphenylphosphino)ethane]gold(I) cyanate]
[1]
  MTD (maximally tolerated dose): 2 mg/kg
  ILS max (maximum increase in lifespan): 84% and 50%
[2]
  Solubility in 9:1 Water:Ethanol: 60 µg/mL

## O=S(=O)([O-])C(F)(F)F.[Au+].c1ccc(P(CCP(c2ccccc2)c2ccccc2)c2ccccc2)cc1.c1ccc(P(CCP(c2ccccc2)c2ccccc2)c2ccccc2)cc1 [compound 20, Bis[1,2-bis(diphenylphosphino)ethane]gold(I) trifluoromethanesulfonate]
[1]
  MTD (maximally tolerated dose): 2 mg/kg
  ILS max (maximum increase in lifespan): 63% and 75%
[2]
  Solubility in 9:1 Water:Ethanol: 20 µg/mL

## CC(=O)C(=O)[O-].[Au+].c1ccc(P(CCP(c2ccccc2)c2ccccc2)c2ccccc2)cc1.c1ccc(P(CCP(c2ccccc2)c2ccccc2)c2ccccc2)cc1 [compound 21, Bis[1,2-bis(diphenylphosphino)ethane]gold(I) 2-oxopropanoate]
[1]
  MTD (maximally tolerated dose): 2 mg/kg
  ILS max (maximum increase in lifespan): 60% and 50%
[2]
  Solubility in 9:1 Water:Ethanol: 200 µg/mL

## O=C([O-])CCCO.[Au+].c1ccc(P(CCP(c2ccccc2)c2ccccc2)c2ccccc2)cc1.c1ccc(P(CCP(c2ccccc2)c2ccccc2)c2ccccc2)cc1 [compound 22, Bis[1,2-(diphenylphosphino)ethane]gold(I) 4-hydroxybutanoate]
[1]
  MTD (maximally tolerated dose): 2 mg/kg
  ILS max (maximum increase in lifespan): 65% and 70%
[2]
  Solubility in 9:1 Water:Ethanol: 2900 µg/mL

## O=C([O-])CO.[Au+].c1ccc(P(CCP(c2ccccc2)c2ccccc2)c2ccccc2)cc1.c1ccc(P(CCP(c2ccccc2)c2ccccc2)c2ccccc2)cc1 [compound 23, Bis[1,2-bis(diphenylphosphino)ethane]gold(I) hydroxyacetate]
[1]
  MTD (maximally tolerated dose): 2 mg/kg
  ILS max (maximum increase in lifespan): 55% and 75%
[2]
  Solubility in 9:1 Water:Ethanol: 8600 µg/mL

## CCC(O)C(=O)[O-].[Au+].c1ccc(P(CCP(c2ccccc2)c2ccccc2)c2ccccc2)cc1.c1ccc(P(CCP(c2ccccc2)c2ccccc2)c2ccccc2)cc1 [compound 24, Bis[1,2-bis(diphenylphosphino)ethane]gold(I) DL-2-hydroxybutanoate]
[1]
  MTD (maximally tolerated dose): 2 mg/kg
  ILS max (maximum increase in lifespan): 55% and 80%
[2]
  Solubility in 9:1 Water:Ethanol: 900 µg/mL

## Bis[1,2-bis(diethylphosphino)ethane]Silver(I) Nitrate [compound 11]
[1]
  MTD (maximally tolerated dose): 0.5 mg/kg
  ILS max (maximum increase in lifespan): 50% and 40%

## Bis[1,2-bis[bis(4-fluorophenyl)phosphino]ethane Gold(I) Chloride [compound 6]
[1]
  MTD (maximally tolerated dose): 3 mg/kg
  ILS max (maximum increase in lifespan): 55% and 50%

## Tris{bis-[1,2-bis(diphenylphosphino)ethane]gold(I)} citrate [compound 19]
[1]
  MTD (maximally tolerated dose): 4 mg/kg
  ILS max (maximum increase in lifespan): 95% and 90%
[2]
  Solubility in 9:1 Water:Ethanol: 30 µg/mL
